# Experimental data taken from patent US20250368963A1, “PROXIMAL-BIASED KIDNEY ORGANOIDS” (UNIVERSITY OF SOUTHERN CALIFORNIA, priority 2024, published 2025).
# Entries after “also recorded” stand apart in the source; their conditions may differ.
# Assays:
# [1] = test system: control and proximal-biased kidney organoids; test: In vitro cisplatin injury assay; type: cell-based, human; conditions: for HNF4A/SOX9 cell state: single cisplatin-dose
# Method: In vitro cisplatin injury assay: For the kidney organoid cisplatin injury assay, the study adapted an approach undertaken by two recent studies. Differentiation day 18 control and proximal-biased organoids were incubated overnight (18 hrs) at 37° C./5% CO2 in TeSR-E6 supplemented with 5 μM cisplatin (Millipore Sigma, 232120). […] Uninjured organoids were cultured with DMSO vehicle. Organoids were then processed for immunofluorescent imaging and analyses. In vitro cisplatin injury assay: For the kidney organoid cisplatin injury assay, the study adapted an approach undertaken by two recent studies. Differentiation day 18 control and proximal-biased organoids were incubated overnight (18 hours) at 37° C./5% CO2 in TeSR-E6 supplemented with 5 μM cisplatin (Millipore Sigma, 232120). Organoids recovered between days 19 and 20, before another overnight culture (18 hours) between days 20 and 21 with 5 μM cisplatin. Uninjured organoids were cultured with DMSO vehicle. Organoids were then processed for immunofluorescent imaging and analyses.
# [2] = test system: day 21 proximal-biased kidney organoids; test: Single-nucleus RNA-sequencing of cisplatin-treated PB organoids; type: cell-based, human; conditions: day 21, double-dose
# Method: Single-nucleus preparation of kidney organoids: For single-nucleus RNA-sequencing, the same number of organoids from multiple independent wells were snap-frozen in liquid nitrogen before nuclei isolation. Briefly, organoids were transferred to a 1.7 mL low binding tube, centrifuged to form a pellet, and snap-frozen in liquid nitrogen. Flash-frozen organoids were dounced in cold Nuclei EZ Lysis Buffer (Sigma, N3408) supplemented with protease inhibitor (Roche, 05892791001). Homogenization was performed using a loose pestle and tight pestle system (Sigma, P0485) with 15 loose-dounce strokes, followed by filtration through a 200 μm strainer (pluriSelect, 43-50200). The homogenate was then subjected to an additional 5 strokes with the tight pestle and incubated on ice for 5 minutes. The suspension was filtered through a 40 μm strainer (pluriSelect, 43-50040) and centrifuged at 500×g for 5 minutes at 4° C. in a swinging-bucket centrifuge. After removing the supernatant, the nuclei pellet was resuspended in just Nuclei EZ Lysis Buffer, incubated on ice for an additional 5 minutes, and centrifuged again. […]
# Single-nucleus processing and sequencing: Single-nucleus RNA-sequencing libraries were generated using the 10× Genomics Chromium Next GEM Single Cell Multiome reagents (PN 1000283) following the manufacturer's protocols (10× Genomics; CG000338 Rev E). Briefly, freshly prepared single-nuclei suspensions were counted on a Countess 3 FL cell counter and approximately 9,000 nuclei per condition went through 1 hour of transposition at 37° C. followed by GEM generation and barcoding on a Chromium X machine with immediate subsequent RT reaction. cDNA was generated from 7 preAmp cycles and 8 cDNA cycles. […]
# Single-nucleus RNA-sequencing analyses: Single-nucleus RNA-sequencing data was processed using Cell Ranger (v9.0.0) and the Seurat 5.2 R package. […] Feature-barcode matrices were subsequently imported into Seurat using the Read10× function. […]
# [3] = test system: human iPSC-derived kidney organoids; test: Bulk mRNA-sequencing of whole kidney organoids; type: cell-based
# Method: mRNA-sequencing and data analyses: Whole organoid samples (3 independent biological replicates per timepoint, per condition for differentiation days 10 and 12, and 2 replicates for differentiation days 14 and 18) were prepared and purified according to the RNeasy Mini Kit (Qiagen, 74104). Purified RNA was sent to Novogene for sequencing. Reads were aligned to the hg38 Ensembl 105 annotation using STAR version 2.7.10a. A noise-reduction filter was applied to keep genes in which the maximum count in at least one sample was greater than or equal to 10. Partek Flow version 10.0 was then used to normalize these raw feature counts following the transcripts per million (TPM) normalization method. After filtering genes with TPM values greater than or equal to 25 in at least one sample, Z-score averages were calculated and heatmaps were clustered using pheatmap. Separately, gene set enrichment analyses were performed specifically on Day 12 replicate samples by first normalizing noise-reduced feature counts using the DESeq2 median ratio method, as recommended for gene set enrichment analyses. Partek Flow version 10.0 was then subsequently used for gene set enrichment analyses. Data are deposited with GEO accession number GSE264217 and will be made publicly available as of the date of publication.
# [4] = test system: human iPSC-derived kidney organoid nephrons; test: Whole-mount immunofluorescence quantification of organoid nephrons; type: cell-based
# [5] = test system: kidney organoid nephrogenic cells; test: Single-cell RNA-sequencing of kidney organoids; type: cell-based, human
# Method: Kidney organoid cell dissociation: Approximately 6 organoids from multiple independent wells of both untreated and treated (48 hour culture with 10 μM LY294002 between days 10 and 12) conditions were collected at differentiation days 10, 12, 14, and 18 for single-cell RNA-sequencing, from separate differentiation batches. The organoids were dissociated using Accumax (Stem Cell Technologies, 07921) at 37° C./5% CO2 for 35 minutes and pipetted twenty times with a P-1000 wide-bore pipette tip every 5 minutes. The dissociation was neutralized by using a 2× volume of AutoMACS Running Buffer (Miltenyi Biotec, 130-091-221). Cells were pelleted by centrifugation at 4° C. for 3 minutes at 300×g. After resuspending the pellet in 2 mL of AutoMACS Running Buffer, cell suspensions were strained through 40 μm strainer (VWR, 21008-949), washing the filter with an additional 1 mL AutoMACS. The flow-through was pelleted, again at 300×g in a 4° C. for 3 minutes. […]
# SPLiT-seq single-cell RNA-sequencing data collection and analyses: SPLiT-seq cell processing. […] Fixed cells were then stored at −80° C. until all samples were ready to be processed with the Evercode WT v2 single-cell RNA-sequencing platform (Parse Biosciences, ECW02030). […]
# [6] = test system: E12.5 mouse kidney explants; test: Mouse kidney organ culture with inhibitors, immunofluorescence; type: cell-based; conditions: mouse kidney explants cultured 48 hours with inhibitor(s)
# Method: Mouse kidney explants and culture: Pregnant female Swiss Webster mice were euthanized on day E12.5 of pregnancy via CO2 following appropriate University of Southern California IACUC approved protocol. Embryos were removed and placed into PBS before dissecting out kidneys for explant culture as described below. Mouse kidney organ culture: Kidneys were dissected from E12.5 embryos and cultured for 48 hours at 37° C./5% CO2 in DMEM. Treatment condition culture media was initially supplemented with 20 μM LY294002, 2 μM DAPT (Tocris 2634), or both, before 48 hours of culture, following prior studies. After culture, mouse kidney explants were prepared for immunofluorescent analyses as described below for organoids.
# [7] = test system: HNF4A-YFP control and PB organoids; test: DAPT treatment of HNF4A-YFP organoids after Ly29 withdrawal; type: cell-based, human; conditions: DAPT 48 hours between days 12 and 14, control and PB conditions
# Method: To determine whether HNF4A^+ cell differentiation is Notch-signaling dependent, the study treated HNF4A-YFP control and PB organoids with DAPT for 48 hours between days 12 and 14, after Ly29 withdrawal (FIGS. 16E-16F). […] In DAPT conditions, YFP− structures still developed but were HNF1B^+/JAG1^+/HNF4A− (FIG. 16E), indicating Notch signaling is required for the transition from HNF1B^+ to HNF4A^+ cells, as anticipated. PB organoids contained more HNF4A^+ structures than other conditions, and controls formed more HNF4A^+ structures than DAPT-treated conditions (pvalues <0.01) (FIG. 16G).
# [8] = test system: human iPSC-derived kidney organoids; test: Comparison of PI3K inhibitors on kidney organoids; type: cell-based
# Method: Small-molecule inhibitor screen and culture optimization: For all small molecule inhibitors used in this study, initial screens were performed on kidney organoids to determine the optimal dosage and duration of culture. […] Concentrations tested used insights from prior studies. After an ideal concentration was established, to determine optimal duration of treatment with the small molecule, separate differentiation experiments were set up with the small molecule from differentiation days 10 to 18, as well as differentiation days 12 to 18. For all optimization screens, time-course bright-field imaging was performed, and organoids were collected for whole-mount immunofluorescent analyses on differentiation day 18. […] Small-molecule inhibitor screen and culture optimization: For all small molecule inhibitors used in this study, initial screens were performed on kidney organoids to determine the optimal dosage and duration of culture. […] After an ideal concentration was established, to determine optimal duration of treatment with the small molecule, separate differentiation experiments were set up with the small molecule from differentiation days 10 to 18, as well as differentiation days 12 to 18. For all optimization screens, time-course bright-field imaging was performed, and organoids were collected for whole-mount immunofluorescent analyses on differentiation day 18.
smiles,measurement,setting,value
N.N.[Cl][Pt][Cl] [cisplatin],tubular integrity and apicobasal polarity,"[1]; ATP1A1 and LAMB1 distribution, injured nephrons",loss of tubular integrity and apicobasal polarity
same,SOX9 response to injury,"[1]; PB kidney organoid nephrons, double dose",activated SOX9
same,correlation of HNF4A protein levels with γH2AX (r),"[1]; cisplatin-injured PB nephrons, day 21",−0.67
same,sensitivity of PB nephrons,"[1]; day 18, 5 μM, 72 hrs",sensitive
same,uninterrupted tubular lumens longer in uninjured samples,"[1]; day 21 PB organoids, uninjured vs injured",2.82 fold
same,KIM1/HAVCR1 protein abundance higher in PB organoid nephrons,"[1]; day 21 following injury, PB vs control organoid nephrons",1.56 fold
same,HNF4A/SOX9 cell state,[1]; 1 day post-injury,HNF4AHIGH/SOX9LOW
same,HNF4A/SOX9 cell state,[1]; 3 days post-injury,HNF4AMED/SOX9MED
same,HNF4A/SOX9 cell state,[1]; 6 days post-injury,HNF4ALOW/SOX9HIGH
same,KIM1/HAVCR1 in HNF4A+ PB nephron cells,"[1]; two staggered doses 5 μM, assayed 3 days after initial injury, PB organoids",strong detection
same,KIM1/HAVCR1 in injured control organoids,"[1]; two staggered doses 5 μM, control organoids",sparse
same,HAVCR1 and SOX9 detection in injured cells,[2]; vs uninjured,higher detection
same,KRT17 detection,[2]; proximal subset,exclusively detected in the injured population
same,cells positive for injury markers that originated from the injured population,[2]; proximal subset,approximately 75%
"O=c1cc(N2CCOCC2)oc2c(-c3ccccc3)cccc12 [Ly29, LY294002]",HNF1B expression upregulated,"[3]; RNA-sequencing, day 12, 48 hr treatment, vs control",2.88 fold
same,increase in JAG1 expression,"[3]; RNA-sequencing, day 12, treated days 10-12, vs control",1.78 fold
same,increase in HNF4A transcript levels,"[3]; bulk RNA-sequencing, day 18, vs controls",2.31 fold
same,increase in HNF4G transcript levels,"[3]; bulk RNA-sequencing, vs controls",1.72 fold
same,HNF4A expression at day 12,"[3]; day 12, not detected",< 1.7 TPM
same,HNF1B+ nephron size increase,"[4]; day 12 organoids, vs controls",1.64 fold
same,JAG1+ nephron size increase,"[4]; day 12 organoids, vs controls",2.36 fold
same,"abundance of HNF1B within each nephron, increase","[4]; day 12 organoids, vs controls",1.22 fold
same,"sum total area of HNF4A+ organoid nephron segments, increase","[4]; day 18, n=3 organoids, vs controls",2.83 fold
same,"average size of individual HNF4A+ segments, increase","[4]; day 18 organoids, vs controls",1.30 fold
same,"total number of HNF4A+ segments per organoid, increase","[4]; day 18 organoids, vs controls",4.02 fold
same,share of all HNF4A+ cells that originated from the PB condition,"[5]; days 12, 14, 18 integrated",72.7%
same,share of all HNF4A+ proximal tubule precursors that originated from the PB condition,[5]; scaled for total cell numbers,70.8%
C[C@H](NC(=O)Cc1cc(F)cc(F)c1)C(=O)N[C@H](C(=O)OC(C)(C)C)c1ccccc1 [DAPT],Hnf4a expression,[6],blocked Hnf4a expression
same,nephron elongation and HNF1B/HES1 upregulation,"[4]; day 12, cultured with DAPT, either with or without Ly29",did not elongate or further upregulate HNF1B; also recorded: did not upregulate HNF1B or HES1
same,HNF4A-YFP,[7],reduced HNF4A-YFP
CS(=O)(=O)N1CCN(Cc2cc3nc(-c4cccc5[nH]ncc45)nc(N4CCOCC4)c3s2)CC1 [GDC-0941],efficacy relative to LY294002,[8]; FIG. 11,slightly less efficacy than LY294002
same,proximal-biasing phenotype of PI3K inhibition,"[8]; second, structurally different PI3K inhibitor",confirmed
